Data: publication PMC8159961, “Exploring protein hotspots by optimized fragment pharmacophores” (Nature Communications, 2021)
pKi: −log10 of the molar value. Several values for one entry are separate records, joined by “and”; a condition that tells them apart may be missing. Identical values can stand only once. Like-named read-outs stand apart in the source and are kept apart here.

What was measured:
human thrombin = target: T1, human thrombin (Homo sapiens, UniProt P00734); assay: Protease inhibitory assay, chromogenic substrate S-2238; assay type: biochemical; settings: for vinit: replicate values
T1 construct: human thrombin; purchased Sigma-Aldrich

bovine factor Xa = target: T2, bovine factor Xa (Bos taurus, UniProt P00743); assay: Protease inhibitory assay, chromogenic substrate S-2222; assay type: biochemical; settings: for vinit: replicate values
T2 construct: bovine factor Xa, Chromogenix, 2 nkat/mL; purchased Chromogenix
T2 sequence (P00743 234-492 limits assumed): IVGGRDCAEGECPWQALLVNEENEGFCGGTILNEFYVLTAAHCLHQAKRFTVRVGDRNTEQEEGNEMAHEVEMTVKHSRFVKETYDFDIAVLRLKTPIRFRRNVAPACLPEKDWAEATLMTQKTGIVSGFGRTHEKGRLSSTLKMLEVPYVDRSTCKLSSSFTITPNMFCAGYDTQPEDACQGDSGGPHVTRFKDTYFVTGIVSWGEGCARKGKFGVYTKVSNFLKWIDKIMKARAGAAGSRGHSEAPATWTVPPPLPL
T2 sequence (P00743 41-180 partner limits assumed): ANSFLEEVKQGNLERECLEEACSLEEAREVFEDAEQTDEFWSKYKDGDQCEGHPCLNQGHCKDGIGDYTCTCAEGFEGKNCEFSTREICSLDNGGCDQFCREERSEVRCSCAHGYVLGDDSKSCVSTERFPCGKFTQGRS

human 5-HT1A receptor = target: T3, human 5-HT1A receptor (Homo sapiens, UniProt P08908); assay: GPCR radioligand binding assay, [3H]-8-OH-DPAT displacement, HEK293 membranes
T3 construct: expressed in transfected cells
T3 sequence (P08908 1-422): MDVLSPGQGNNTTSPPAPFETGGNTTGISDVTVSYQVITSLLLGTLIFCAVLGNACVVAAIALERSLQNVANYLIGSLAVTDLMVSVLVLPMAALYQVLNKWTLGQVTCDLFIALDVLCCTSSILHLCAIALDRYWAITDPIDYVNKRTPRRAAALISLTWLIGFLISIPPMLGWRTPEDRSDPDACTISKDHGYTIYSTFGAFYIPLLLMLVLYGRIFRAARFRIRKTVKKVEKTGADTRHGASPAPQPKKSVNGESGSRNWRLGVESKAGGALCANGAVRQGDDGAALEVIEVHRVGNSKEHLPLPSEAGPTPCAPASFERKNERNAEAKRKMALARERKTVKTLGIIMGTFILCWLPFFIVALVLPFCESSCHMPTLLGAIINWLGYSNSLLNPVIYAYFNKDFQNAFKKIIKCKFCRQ

human 5-HT6 receptor = target: T4, human 5-HT6 receptor (Homo sapiens, UniProt P50406); assay: GPCR radioligand binding assay, [3H]-LSD displacement, HEK293 membranes
T4 construct: expressed in transfected cells
T4 sequence (P50406 whole entry): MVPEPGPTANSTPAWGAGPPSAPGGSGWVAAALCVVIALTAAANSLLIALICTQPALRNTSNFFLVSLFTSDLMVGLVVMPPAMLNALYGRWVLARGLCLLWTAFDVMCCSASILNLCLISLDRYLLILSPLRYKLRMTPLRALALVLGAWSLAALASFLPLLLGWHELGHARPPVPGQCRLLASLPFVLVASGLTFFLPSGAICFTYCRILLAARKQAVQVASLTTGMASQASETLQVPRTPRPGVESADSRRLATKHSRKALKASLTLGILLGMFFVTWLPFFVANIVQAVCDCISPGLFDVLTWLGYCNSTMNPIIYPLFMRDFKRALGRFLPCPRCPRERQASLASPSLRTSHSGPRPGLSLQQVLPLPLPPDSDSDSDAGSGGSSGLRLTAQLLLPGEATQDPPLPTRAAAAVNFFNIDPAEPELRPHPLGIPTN

human 5-HT7b receptor = target: T5, human 5-HT7b receptor (Homo sapiens, UniProt P34969); assay: GPCR radioligand binding assay, [3H]-5-CT displacement, HEK293 membranes
T5 construct: expressed in transfected cells
T5 sequence (P34969 1-432): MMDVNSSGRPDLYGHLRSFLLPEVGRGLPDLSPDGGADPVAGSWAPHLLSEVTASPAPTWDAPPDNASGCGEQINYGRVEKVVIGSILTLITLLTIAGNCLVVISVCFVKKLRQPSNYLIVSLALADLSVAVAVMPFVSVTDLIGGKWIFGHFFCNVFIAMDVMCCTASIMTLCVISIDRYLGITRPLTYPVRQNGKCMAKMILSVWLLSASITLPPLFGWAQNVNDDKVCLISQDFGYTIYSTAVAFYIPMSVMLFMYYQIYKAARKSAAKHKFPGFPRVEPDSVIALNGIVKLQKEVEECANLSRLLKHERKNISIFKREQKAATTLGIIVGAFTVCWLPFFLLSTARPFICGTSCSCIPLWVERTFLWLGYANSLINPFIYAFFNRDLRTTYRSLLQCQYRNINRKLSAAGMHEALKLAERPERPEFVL

[1] = Thrombin primary screening, substrate 40 µM, cmpd conc 500 µM
[2] = FactorXa primary screening, substrate 100 µM, cmpd conc 200 µM
[3] = FactorXa Ki determination, substrate 100 µM, cmpd conc 200 µM
[4] = FactorXa Ki determination, substrate 200 µM, cmpd conc 200 µM
[5] = Thrombin Ki determination, substrate 20 µM, cmpd conc 200 µM
[6] = Thrombin Ki determination, substrate 40 µM, cmpd conc 200 µM
[7] = 10 µM, read-out: 5-HT1A % Inhibition by plate position
[8] = 5-HT1A, average of exp_1 and exp_2, read-out: %inh 5-HT1A average
[9] = 5-HT1A, average, values below 0 and above 100% were set as 0 and 100, read-out: %inh 5-HT1A corrected*
[10] = 5-HT1A, replicate exp_1, read-out: %inh 5-HT1A exp_1
[11] = 5-HT1A, replicate exp_2, read-out: %inh 5-HT1A exp_2
[12] = 10 µM, read-out: 5-HT6 % Inhibition by plate position
[13] = 5-HT6, average of exp_1 and exp_2, read-out: %inh 5-HT6 average
[14] = 5-HT6, average, values below 0 and above 100% were set as 0 and 100, read-out: %inh 5-HT6 corrected*
[15] = 5-HT6, replicate exp_1, read-out: %inh 5-HT6 exp_1
[16] = 5-HT6, replicate exp_2, read-out: %inh 5-HT6 exp_2
[17] = 10 µM, read-out: 5-HT7 % Inhibition by plate position
[18] = 5-HT7, average of exp_1 and exp_2, read-out: %inh 5-HT7 average
[19] = 5-HT7, average, values below 0 and above 100% were set as 0 and 100, read-out: %inh 5-HT7 corrected*
[20] = 5-HT7, replicate exp_1, read-out: %inh 5-HT7 exp_1
[21] = 5-HT7, replicate exp_2, read-out: %inh 5-HT7 exp_2
[22] = plate layout, label = plate position, Cheng-Prusoff, Km 2.6 µM, read-out: Thrombin Ki

Compound | V0 / Vi (human thrombin; [1]) | vinit (human thrombin; [1]) | V0 / Vi (bovine factor Xa; [2]) | vinit (bovine factor Xa; [2]) | inhibition at 10 µM (human 5-HT1A receptor; [7]) | inhibition at 10 µM (human 5-HT1A receptor; [8]) | inhibition at 10 µM (human 5-HT1A receptor; [9]) | inhibition at 10 µM (human 5-HT1A receptor; [10]) | inhibition at 10 µM (human 5-HT1A receptor; [11]) | inhibition at 10 µM (human 5-HT6 receptor; [12]) | inhibition at 10 µM (human 5-HT6 receptor; [13]) | inhibition at 10 µM (human 5-HT6 receptor; [14]) | inhibition at 10 µM (human 5-HT6 receptor; [15]) | inhibition at 10 µM (human 5-HT6 receptor; [16]) | inhibition at 10 µM (human 5-HT7b receptor; [17]) | inhibition at 10 µM (human 5-HT7b receptor; [18]) | inhibition at 10 µM (human 5-HT7b receptor; [19]) | inhibition at 10 µM (human 5-HT7b receptor; [20]) | inhibition at 10 µM (human 5-HT7b receptor; [21]) | further results
Brc1ccc(-c2ccon2)cc1 [SX-A9] | 0.98 | 30.873 and 32.327 | 0.98 | 19.055 and 17.6 | – | – | – | – | – | – | – | – | – | – | – | – | – | – | – | –
Cc1cc2ccccc2nc1N [SX-A1] | 0.95 | 30.291 and 31.236 | 1.83 | 9.345 and 9.782 | – | – | – | – | – | – | – | – | – | – | – | – | – | – | – | V0 / Vi (bovine factor Xa; [3]): 1.84; vinit, avrg. (bovine factor Xa; [3]): 8.852; vinit (bovine factor Xa; [3]): 8.688 and 8.852 and 9.02; V0 / Vi (bovine factor Xa; [4]): 1.59; vinit (bovine factor Xa; [4]): 22.63 and 23.206 and 22.86; pKi (bovine factor Xa; FactorXa, substrate 100 µM, cmpd conc 200 µM, one of two values averaged in Supplementary Data 1, read-out: Ki): 3.83; pKi (bovine factor Xa; FactorXa, substrate 200 µM, cmpd conc 200 µM, one of two values averaged in Supplementary Data 1, read-out: Ki): 3.82
CCCN1C(=O)CC(=O)NC1=S [SX-D5] | 1.13 | 26.909 and 25.673 | 1.06 | 16.429 and 16.071 | – | – | – | – | – | – | – | – | – | – | – | – | – | – | – | –
CS(=O)(=O)c1ccc(N2CCNCC2)cc1 [SX-B1] | – | 29.818 and 32 | – | 18 and 19.091 | – | – | – | – | – | – | – | – | – | – | – | – | – | – | – | –
COc1ccccc1C1CCNCC1 [SX-A11] | 0.93 | 35.636 and 31.927 | 0.86 | 16.916 and 16.512 | – | – | – | – | – | – | – | – | – | – | – | – | – | – | – | –
CC(CN)N1CCc2sccc2C1 (stereo not drawn) [SX-F9] | 1.01 | 34.291 and 27.273 | 0.97 | 18.364 and 18.582 | – | – | – | – | – | – | – | – | – | – | – | – | – | – | – | –
Cc1cc(N)no1 [SX-B11] | 1.00 | 30.982 and 31.927 | 0.97 | 13.08 and 16.72 | – | – | – | – | – | – | – | – | – | – | – | – | – | – | – | –
O=C(O)c1cnc(-c2ccccc2)s1 [SX-F3] | 1.06 | 26.545 and 28.873 | 1.02 | 17.382 and 16.873 | – | – | – | – | – | – | – | – | – | – | – | – | – | – | – | V0 / Vi (human thrombin; [5]): 1.08; vinit, avrg. (human thrombin; [5]): 24.620; vinit (human thrombin; [5]): 23.206 and 25.134 and 25.52; V0 / Vi (human thrombin; [6]): 1.05; vinit, avrg. (human thrombin; [6]): 32.167; vinit (human thrombin; [6]): 32.686 and 32.577 and 31.24; pKi (human thrombin; Thrombin, substrate 20 µM, cmpd conc 200 µM, one of two values averaged in Supplementary Data 1, read-out: Ki): 3.53; pKi (human thrombin; Thrombin, substrate 40 µM, cmpd conc 200 µM, one of two values averaged in Supplementary Data 1, read-out: Ki): 3.61
c1ccc2oc(C3CCCNC3)nc2c1 (stereo not drawn) [SX-D10] | 0.92 | 35.091 and 33.236 | 0.95 | 15 and 15.3 | – | – | – | – | – | – | – | – | – | – | – | – | – | – | – | –
O=C(O)c1cnc(-c2ccccc2)s1 [F3] | – | – | – | – | 2.52% | 2.52% | 2.52% | -2.47% | 7.5% | 41% | 41% | 41% | 48% | 34% | 0% | -18% | 0% | -6% | -31% | pKi (human thrombin; [22]): 3.57
Nc1nnc(-c2cccs2)[nH]1 [D3] | – | – | – | – | 0.863% | 0.863% | 0.863% | 1.73% | 0% | 52% | 52% | 52% | 52% | 53% | 0% | -1.67% | 0% | 1.55% | -5% | pKi (human thrombin; [22]): 3.74
Oc1ccccc1N1CCCCC1 [A12] | – | – | – | – | 0% | -10% | 0% | 3.37% | -23% | 55% | 55% | 55% | 69% | 42% | 0% | -0.0781% | 0% | -4.73% | 4.58% | pKi (bovine factor Xa; plate layout, label = plate position, Cheng-Prusoff, Km 164 µM, read-out: Factor Xa Ki): 3.21
O=C(O)C1CCN(c2ncccn2)CC1 [E9] | – | – | – | – | 3% | 3% | 3% | 11% | -4.35% | 29% | 29% | 29% | 32% | 26% | 0% | -8.55% | 0% | 3.77% | -21% | pKi (human thrombin; [22]): 4.12
O=C(c1ccccc1F)N1CCNCC1 [E12] | – | – | – | – | 15% | 15% | 15% | 13% | 17% | 17% | 17% | 17% | 12% | 22% | 0% | -6% | 0% | -4.53% | -8% | pKi (bovine factor Xa): 3.29
